Data on two molecules can be found in US4921871A, “Enolamides, pharmaceutical compositions and methods of use thereof for treating inflammation” (Warner-Lambert Company, priority 1987, dated 1990).

The target of the assay is T1, leukotriene receptor (Cavia porcellus, UniProt Q2NNR5).
T1 construct: Two pairs of lungs (1.3 g) from freshly sacrificed 300 g male guinea pigs; tissue Kuiper Rabbit Farm, Gary, Ind; (animals); host or cells: guinea pig lung, crude membranes
T1 sequence (Q2NNR5 1-340): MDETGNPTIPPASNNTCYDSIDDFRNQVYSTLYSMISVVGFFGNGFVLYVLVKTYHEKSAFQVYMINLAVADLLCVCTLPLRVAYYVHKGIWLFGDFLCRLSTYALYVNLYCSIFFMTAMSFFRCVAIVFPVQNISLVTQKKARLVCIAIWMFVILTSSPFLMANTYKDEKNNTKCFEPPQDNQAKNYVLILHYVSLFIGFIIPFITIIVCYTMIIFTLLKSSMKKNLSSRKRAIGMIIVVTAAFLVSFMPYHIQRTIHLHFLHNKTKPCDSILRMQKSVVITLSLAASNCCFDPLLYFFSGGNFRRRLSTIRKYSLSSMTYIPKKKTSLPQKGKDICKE
Put plainly: Binding of 3H-Leukotriene D4 to Guinea Pig Lung Membranes (RBL). The note with it: 1.00 E -4 M. How it is done: Additionally, the activity, of the compounds having the Formula I of the present invention is determined by the well known leukotriene receptor binding assay that is described by R. F. Bruns, W. J. Thomsen and T. A. Pugsley in Life Sciences, 33, 645 (1983) or the Herxheimer in vivo antiallergy test described in H. Herxheimer, J. Physiol. (London), Vol. 177, p. 251 (1952).
[14,15-^3 H]leukotriene D4 (^3 H-LTD4) (25 Ci/mmol and 40 Ci/mmol) is purchased from New England Nuclear. Unlabeled LTC4 is a gift of Ono Pharmaceuticals (Japan). LTC4, LTD4, and LTE4 are purchased as methyl esters from Paesel GmbH (Frankfurt, W. Germany). Concentrations of the Paesel leukotrienes are calculated from their absorbance at 280 nm. Leukotriene esters are saponified overnight under N2 in 3.3% potassium carbonate at room temperature. Tritiated leukotrienes are stored as received from New England Nuclear at -20° C. Ono LTC4 (5 μg/ml) is stored at -60° C. in phosphate buffer pH - 6.8. Saponified Paesel leukotrienes are stored at -60° C. in 3.3% potassium carbonate (pH 9.0-9.5). Aliquots of leukotrienes are taken from stock solutions immediately after thawing, after which the stock solutions are immediately refrozen. 2-Amino-2-(hydroxymethyl)-1,3-propanediol (Tris) is Sigma pH 7.7 pre-set crystals, and dimethylsulfoxide is Aldrich Gold Label. Preparation of crude lung membranes
Two pairs of lungs (1.3 g) from freshly sacrificed 300 g male guinea pigs (older animals gave substantially lower binding) from Kuiper Rabbit Farm, Gary, Ind. are disrupted with a Polytron PT 10 (setting 4) for 30 seconds in 20 ml ice-cold 50 mM Tris adjusted with HCl to pH 7.7 at 25° C. (Tris buffer), filtered through a single layer of gauze to remove connective tissue, and centrifuged at 50,000 xg for ten min. The pellet is resuspended by homogenization with a Polytron in 20 ml Tris buffer, centrifuged at 50,000 xg for ten min., resuspended, incubated at 37° C. for 30 minutes, and centrifuged again. The final pellet is resuspended in Tris buffer and either used fresh or stored at -70° C.
All incubations are in triplicate for 60 minutes at 25° C. in 12×75 mm polystyrene tubes containing 1 ml Tris buffer with 20 mg original tissue wet weight of guinea pig lung membranes, 0.2 nM ^3 H-LTD4 (6,000-11,000 cpm), 10 mM MgCl2, and 1% dimethylsulfoxide. Leukotrienes are diluted in Tris buffer. All other test compounds dissolved at 10 mM in dimethylsulfoxide on the same day as the experiment, and diluted in dimethylsulfoxide to 100× the final incubation concentration. Control incubations receive an equal volume (10 μl) of dimethylsulfoxide; the resulting concentration of dimethylsulfoxide had no effect on binding. ^3 H-LTD4 is diluted to 2 nM in Tris buffer. The membrane suspension (20 mg/0.89 ml) contains sufficient MgCl2 to give 10 mM final concentration in the incubation. […] All additions are performed at 0° C. Immediately after the last addition, the incubation is initiated by agitating the rack of tubes on a vortex mixer and warming to 25° C. in a water bath. Tubes are vortexed at least once more during the incubation to ensure that the membranes remained suspended. Incubations are terminated after 60 minutes by filtering under reduced pressure through 25 mm Whatman GF/B filters followed by rapid washing three times with 4 ml of ice-cold Tris buffer. Filters are added to scintillation vials with 8 ml Formula 947 (New England Nuclear), left overnight, shaken, and the radioactivity counted in a scintillation counter (efficiency 40%). Nonspecific binding, defined as binding of ^3 H-LTD4 in the presence of 100 nM LTC4, is 300-500 cpm for all lots of ^3 H-LTD4. Binding to the filters in the absence of tissue is about 100 cpm, and is not affected by unlabeled LTC4. Specific binding, defined as total binding minus nonspecific binding, varied considerably from lot to lot of ^3 H-LTD4. […]

Consider `O=C(Nc1ccc(CCc2ccc(Cl)c(Cl)c2)cc1)C(=O)c1sc2ccccc2c1O` [Example 136, Benzo[b]thiophene-2-acetamide, N-[4-[2-(3,4-dichlorophenyl)ethyl]phenyl]-3-hydroxy-α-oxo], for which the “RBL, % Inhibition” value is 11.0%.

Regarding `COc1c(C(=O)Nc2ccc(CCc3ccc(Cl)c(Cl)c3)cc2)sc2ccccc12` [Example 147, Benzo[b]thiophene-2-carboxamide, N-[4-[2-(3,4-dichlorophenyl)ethyl]phenyl]-3-methoxy], the “RBL, % Inhibition” value was 3.0%.
